Test system: yeast tRNA^Phe (RNA, tRNA) GCGGAUUUAGCUCAGUUGGGAGAGCGCCAGACUGAAGAUCUGGAGGUCCUGUGUUCGAUCCACAGAAUUCGCACCA
Test: inhibition of lead(II)-induced cleavage, gel
Conditions: 10 mM Mg2+, 1 mM NH4+, 0.5 mM Pb2+; 50% inhibition of Pb2+ cleavage; 50 mM Tris-HCl pH 7.5; RNA 2.4 μM

Cc1cc2nc3ccc(N(C)C)cc3[s+]c2cc1N
Ki: 70 ± 20 µM

From publication PMC5039424 (2016)
